Test results reported in patent US20260049072A1, “HETEROCYCLIC COMPOUND FOR INDUCING DEGRADATION OF MUTANT KRAS PROTEIN” (Astellas Pharma Inc., priority 2022, published 2026).

Key:
PA-TU-8902 xenograft = assay: Anti-tumor activity in PA-TU-8902 xenograft mouse; type: in vivo; conditions: 30 mg/kg, tail vein, twice a week for two weeks, male nude mice
Procedure: (§1) Test Example 4: Evaluation of Anti-Tumor Activity in Human KRAS G12V Mutant-Positive Pancreatic Cancer Line PA-TU-8902 or Human KRAS G12D Mutant-Positive Pancreatic Cancer Line PK-59 Xenograft Mouse
(§2) PA-TU-8902 cells or PK-59 cells (RIKEN BRC, RCB1901) were cultured using DMEM medium or RPMI-1640 medium containing 10% fetal bovine serum, respectively, in the presence of 5% CO2 at 37° C. The PA-TU-8902 cells or the PK-59 cells were collected and suspended in PBS, and two equivalents of VitroGel Hydrogel Matrix (from TheWell Bioscience) was added. A cell suspension prepared at 1.0-2.0×10^7 cells/mL was subcutaneously inoculated in a volume of 100 μL in 4- to 6-week-old male nude mice (BALB/c-nu (nu/nu), from The Jackson Laboratory Japan, Inc.). After about two weeks of the inoculation, the mice were divided into groups so that all the groups had approximately the same tumor volume and body weight, and administration of a subject compound was started on the next day. The test was conducted for five mice for each of a solvent group and a subject compound administration group. The solvent used was a solvent containing ethanol (from FUJIFILM Wako), an aqueous (2-hydroxypropyl)-β-cyclodextrin (HP-PCD) solution (from ROQUETTE), HCO-40 (from Nikko Chemicals Co., Ltd.) dissolved in a 5% glucose solution (from Otsuka Pharmaceutical) at a ratio of 4%, 0.5%, and 9%, respectively. The compound was dissolved using the solvent. The subject compound dissolved in the solvent or the solvent was administered into tail vein. The administration was performed once or twice a week for two weeks. The tumor size and the body weight were measured twice a week. The tumor volume was calculated by using the following formula.
(§3) [Tumor volume (mm^3)]=[Major axis of tumor (mm)]×[Minor axis of tumor (mm)]^2×0.5
(§4) The tumor growth inhibition (%) by the subject compound was calculated with the tumor volume of the subject compound administration group on the previous day of the start of the administration taken as 100% inhibition and the tumor volume of the solvent group of the day of the final measurement taken as 0% inhibition.

PK-59 xenograft = assay: Anti-tumor activity in PK-59 xenograft mouse; type: in vivo; conditions: 10 mg/kg, tail vein, once a week for two weeks, male nude mice
Procedure: as §1, §2, §3, §4

CO[C@@H](C)COc1cc(OC2CN(C(=O)NCCN(C)C)C2)c2cc(C3CC3)c(-c3c(C)c(F)cc4[nH]ncc34)c(OCc3ccc(-c4cn([C@H](C(=O)N5C[C@H](O)C[C@H]5C(=O)N[C@@H](CO)c5ccc(-n6cncn6)cc5)C(C)C)nn4)cc3)c2n1 (atropisomer, axis not shown; (M)) [Example 12, (4R)-1-[(2S)-2-(4-{4-[({(7M)-6-cyclopropyl-4-[(1-{[2-(dimethylamino)ethyl]carbamoyl}azetidin-3-yl)oxy]-7-(6-fluoro-5-methyl-1H-indazol-4-yl)-2-[(2S)-2-methoxypropoxy]quinolin-8-yl}oxy)methyl]phenyl}-1H-1,2,3-triazol-1-yl)-3-methylbutanoyl]-4-hydroxy-N-{(1R)-2-hydroxy-1-[4-(1H-1,2,4-triazol-1-yl)phenyl]ethyl}-L-prolinamide]
Anti-tumor activity at final measurement (PA-TU-8902 xenograft mouse), tumor growth inhibition (PA-TU-8902 xenograft): 61% inhibition | Anti-tumor activity at final measurement (PK-59 xenograft mouse), tumor growth inhibition (PK-59 xenograft): 63% inhibition

CO[C@@H](C)COc1nc(NC2CN(C(=O)O[C@H]3C[C@@H](N(C)C)C3)C2)c2cc(C3CC3)c(-c3c(C)c(F)cc4[nH]ncc34)c(OCc3ccc(-c4cn([C@H](C(=O)N5C[C@H](O)C[C@H]5C(=O)N[C@@H](CO)c5ccc(-c6scnc6C)cc5)C(C)C)nn4)cc3)c2n1 (atropisomer, axis not shown; (M)) [Example 11, (1s,3R)-3-(dimethylamino)cyclobutyl 3-({(7M)-6-cyclopropyl-7-(6-fluoro-5-methyl-1H-indazol-4-yl)-8-{[4-(1-{(2S)-1-[(2S,4R)-4-hydroxy-2-({(1R)-2-hydroxy-1-[4-(4-methyl-1,3-thiazol-5-yl)phenyl]ethyl}carbamoyl)pyrrolidin-1-yl]-3-methyl-1-oxobutan-2-yl}-1H-1,2,3-triazol-4-yl)phenyl]methoxy}-2-[(2S)-2-methoxypropoxy]quinazolin-4-yl}amino)azetidine-1-carboxylate]
Anti-tumor activity at final measurement (PA-TU-8902 xenograft mouse), tumor growth inhibition (PA-TU-8902 xenograft): 73% inhibition | Anti-tumor activity at final measurement (PK-59 xenograft mouse), tumor growth inhibition (PK-59 xenograft): 95% inhibition

CO[C@@H](C)COc1nc(NC2CN(C(=O)O[C@H]3C[C@@H](N(C)C)C3)C2)c2cc(C3CC3)c(-c3c(C)c(F)cc4[nH]ncc34)c(OCc3ccc(-c4cn([C@H](C(=O)N5C[C@H](O)C[C@H]5C(=O)N[C@@H](CO)c5ccc(-c6ocnc6C)cc5)C(C)C)nn4)cc3)c2n1 (atropisomer, axis not shown; (M)) [Example 1, (1s,3R)-3-(dimethylamino)cyclobutyl 3-({(7M)-6-cyclopropyl-7-(6-fluoro-5-methyl-1H-indazol-4-yl)-8-{[4-(1-{(2S)-1-[(2S,4R)-4-hydroxy-2-({(1R)-2-hydroxy-1-[4-(4-methyl-1,3-oxazol-5-yl)phenyl]ethyl}carbamoyl)pyrrolidin-1-yl]-3-methyl-1-oxobutan-2-yl}-1H-1,2,3-triazol-4-yl)phenyl]methoxy}-2-[(2S)-2-methoxypropoxy]quinazolin-4-yl}amino)azetidine-1-carboxylate]
Anti-tumor activity at final measurement (PA-TU-8902 xenograft mouse), tumor growth inhibition (PA-TU-8902 xenograft): 69% inhibition | Anti-tumor activity at final measurement (PK-59 xenograft mouse), tumor growth inhibition (PK-59 xenograft): 68% inhibition

CO[C@@H](C)COc1cc(OC2CN(C(=O)O[C@H]3C[C@@H](N(C)C)C3)C2)c2cc(C3CC3)c(-c3c(C)c(F)cc4[nH]ncc34)c(OCc3ccc(-c4cn([C@H](C(=O)N5C[C@H](O)C[C@H]5C(=O)N[C@@H](CO)c5ccc(-n6cncn6)cc5)C(C)C)nn4)cc3)c2n1 (atropisomer, axis not shown; (M)) [Example 13, (1s,3R)-3-(dimethylamino)cyclobutyl 3-({(7M)-6-cyclopropyl-7-(6-fluoro-5-methyl-1H-indazol-4-yl)-8-{[4-(1-{(2S)-1-[(2S,4R)-4-hydroxy-2-({(1R)-2-hydroxy-1-[4-(1H-1,2,4-triazol-1-yl)phenyl]ethyl}carbamoyl)pyrrolidin-1-yl]-3-methyl-1-oxobutan-2-yl}-1H-1,2,3-triazol-4-yl)phenyl]methoxy}-2-[(2S)-2-methoxypropoxy]quinolin-4-yl}oxy)azetidine-1-carboxylate]
Anti-tumor activity at final measurement (PA-TU-8902 xenograft mouse), tumor growth inhibition (PA-TU-8902 xenograft): 57% inhibition | Anti-tumor activity at final measurement (PK-59 xenograft mouse), tumor growth inhibition (PK-59 xenograft): 78% inhibition

CO[C@@H](C)COc1cc(OC2CN(C(=O)N3CC(CN(C)C)C3)C2)c2cc(C3CC3)c(-c3c(C)c(F)cc4[nH]ncc34)c(OCc3ccc(-c4cn([C@H](C(=O)N5C[C@H](O)C[C@H]5C(=O)N[C@@H](CO)c5ccc(-n6cncn6)cc5)C(C)C)nn4)cc3)c2n1 (atropisomer, axis not shown; (M)) [Example 5, (4R)-1-[(2S)-2-(4-{4-[({(7M)-6-cyclopropyl-4-[(1-{3-[(dimethylamino)methyl]azetidine-1-carbonyl}azetidin-3-yl)oxy]-7-(6-fluoro-5-methyl-1H-indazol-4-yl)-2-[(2S)-2-methoxypropoxy]quinolin-8-yl}oxy)methyl]phenyl}-1H-1,2,3-triazol-1-yl)-3-methylbutanoyl]-4-hydroxy-N-{(1R)-2-hydroxy-1-[4-(1H-1,2,4-triazol-1-yl)phenyl]ethyl}-L-prolinamide]
Anti-tumor activity at final measurement (PA-TU-8902 xenograft mouse), tumor growth inhibition (PA-TU-8902 xenograft): 56% inhibition | Anti-tumor activity at final measurement (PK-59 xenograft mouse), tumor growth inhibition (PK-59 xenograft): 92% inhibition
